The structures appear in SMILES notation. Counter-ions that a name gives are not always drawn.

For data set [1], the target named is T1, delta-5-desaturase (Rattus norvegicus, UniProt Q920R3).
T1 construct: a rat liver microsome fraction (10 μl) diluted to 3 mg/ml with a microsome buffer; from tissue; host or cells: rat liver microsome fraction
Kind of data set: Inhibitory activity on binding of [3H]-labelled Reference Example 1 ligand to delta-5-desaturase (rat liver microsome fraction). To be noted: test compound 10 μM; for inhibition at 10 µM: 3 nM tritiated ligand of Reference Example 1, read-out: Binding inhibitory activity against compound bind to delta-5-desaturase Binding inhibition rate (%) at 10 μM. The method, then:
Inhibitory Activity on Binding of N-[2-({4-oxo-3-[4-(2,2,2-trifluoroethoxy)[2,6-^3H2]phenyl]-3,4-dihydrothieno[3,4-d]pyrimidin-2-yl}sulfanyl)ethyl]acetamide (Reference Example 1) to delta-5-desaturase)
All tests were performed at room temperature at 200 μL/well. A rat liver microsome fraction (30 μg/well) was preincubated with a test compound at a final concentration of 10 μM for 15 min in an assay buffer (10 mM Tris-HCl (pH 7.5), 100 mM KCl, 10 mM NaF, 3 mM MgCl2, 0.005% Tween20 and 1 mM GSH). N-[2-({4-oxo-3-[4-(2,2,2-trifluoroethoxy) [2,6-^3H2]phenyl]-3,4-dihydrothieno[3,4-d]pyrimidin-2-yl}sulfanyl)ethyl]acetamide was added to a final concentration of 3 nM and the mixture was incubated for 150 min. For Bound/Free separation, the membrane fraction was added on a GF/C glass filter using a cell harvester. The GF/C glass filter was washed 5 times with 300 μl of ice-cooled assay buffer (without 0.005% Tween) to separate the ligand bound to delta-5-desaturase. 50 μl of MicroScinti 0 was added, and the radioactivity on the filter was measured by TopCount. To evaluate non-specific binding, 10 μM N-[2-({4-oxo-3-[4-(2,2,2-trifluoroethoxy)phenyl]-3,4-dihydrothieno[3,4-d]pyrimidin-2-yl}sulfanyl)ethyl]acetamide was used. The inhibitory rate (%) of the test compound (10 μM) on the binding of N-[2-({4-oxo-3-[4-(2,2,2-trifluoroethoxy) [2,6-^3H2]phenyl]-3,4-dihydrothieno[3,4-d]pyrimidin-2-yl}sulfanyl)ethyl]acetamide to delta-5-desaturase was determined.
Background: Liver microsomes are a subcellular fraction often used to study metabolism.

In data set [2] the target is T2, delta-5-desaturase (Homo sapiens, UniProt O60427).
T2 construct: endogenous in cells; host or cells: HepG2
Kind of data set: Delta-5-desaturase inhibitory activity using HepG2 cell. The class given is cell-based. The following applies: test compound 1 μM. The method, then:
Delta-5-Desaturase Inhibitory Activity Using HepG2 Cell
HepG2 was plated on a 96-well plate at 1×10^5 cells/well, and cultured overnight in DMEM (Dulbecco's modified Eagle medium) containing 10% FBS (fetal bovine serum). After washing (200 μL×2) with PBS (phosphate buffered saline), 40 μL of a reaction medium (DMEM, penicillin/streptomycin, 0.3% BSA) containing the test compound was added, and the mixture was preincubated in a CO2 incubator at 37° C. for 30 min. The reaction was started by adding a reaction medium (20 μL) containing 0.1 μCi [^14C]Eicosatrienoic acid, and the mixture was incubated in a CO2 incubator at 37° C. Incubation was performed for 3 hr, the cells were washed twice with 200 μL of PBS, detached with 50 μL of trypsin-EDTA and placed on a 96-deep well block. Furthermore, 20 μL of 2.5N NaOH was added, the plate was sealed and incubated overnight at 55° C. to allow saponification. The fatty acid extraction included acidifying with 10 μL of formic acid, adding chloroform:methanol (1:4), stirring, and further adding 200 μL of pure water to separate into two layers. The operation after development with TLC followed the method of detection system using TLC in a system using a rat liver microsome. A delta-5-desaturase inhibitory rate (%) of 1 μM test compound was determined.

Data set [3] has as its target T1, delta-5-desaturase. Nature of the data set: Delta-5-desaturase inhibitory activity using rat liver microsome. To be noted: test compound 10 μM. Format: biochemical. The method, then: Delta-5-Desaturase Inhibitory Activity Using Rat Liver Microsome
The inhibitory activity of the test compound on delta-5-desaturase was measured by the method described below. To a solution of the test compound in DMSO prepared in advance was secondarily diluted with a buffer (300 mM NaH2PO4 [pH 7.4], 450 mM KCl, 30 mM NaF, 9 mM MgCl2, 4.5 mM glutathione [reduced form], 0.3% BSA [fatty acid free, SIGMA]) to give an assay buffer. The assay buffer (10 μl) was dispensed to a polypropylene deep 96-well block, and a rat liver microsome fraction (10 μl) diluted to 3 mg/ml with a microsome buffer (10 mM Tris-HCl [pH 7.4], 1 mM EDTA, 250 mM sucrose) was added. The enzyme reaction was started by adding 9 mM NADH, 9 mM ATP, 0.9 mM CoA, 10 μCi/ml (8E,11E,14E)-(1-^14C)eicosa-8,11,14-trienoic acid (PerkinElmer Inc.) (10 μl). The enzyme reaction was performed for 120 min at room temperature, and discontinued by the addition of 10 μl of 2.5M NaOH. After discontinuation of the reaction, the plate was sealed and incubated overnight at 55° C. to allow saponification. The fatty acid was extracted with solvent based on the Bligh & Dyer method described in Can. J. Biochem. Physiol., vol. 37, page 911 (1959) by adding formic acid:methanol:chloroform (1:6:3) (200 μl), maintaining the single layer state, sufficiently stirring the mixture and adding pure water (120 μl) for separation into two layers. The lower chloroform layer (10 μl) was spotted on a reversed-phase TLC plate (RP-18, 1154230001, Merck Japan, Ltd.), developed with acetonitrile:pure water:acetic acid (95:4.5:0.5), and the dried TLC plate was transcribed on Imaging Plate (Fuji Photo Film Co., Ltd.) for 5 hr or longer. The detection was performed using BAS-5000 (Fuji Photo Film Co., Ltd.), and the obtained spot image was numerically converted by Multi Gauge Ver2.3 (Fuji Photo Film Co., Ltd.) and a delta-5-desaturase inhibitory rate (%) of 10 μM test compound was determined.

T1 sequence (Q920R3 whole entry): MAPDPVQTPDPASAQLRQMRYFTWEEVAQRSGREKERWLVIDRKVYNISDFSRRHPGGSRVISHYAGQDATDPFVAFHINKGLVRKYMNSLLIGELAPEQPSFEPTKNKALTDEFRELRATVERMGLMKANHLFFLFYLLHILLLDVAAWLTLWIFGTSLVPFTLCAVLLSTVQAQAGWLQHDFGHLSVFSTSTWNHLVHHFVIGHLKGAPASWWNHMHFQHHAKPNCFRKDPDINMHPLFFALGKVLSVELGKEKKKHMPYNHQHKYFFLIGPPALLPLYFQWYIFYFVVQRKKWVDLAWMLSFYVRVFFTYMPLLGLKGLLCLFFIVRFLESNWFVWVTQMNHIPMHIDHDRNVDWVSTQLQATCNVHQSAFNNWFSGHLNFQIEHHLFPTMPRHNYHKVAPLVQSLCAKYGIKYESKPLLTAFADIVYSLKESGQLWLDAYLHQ
T2 sequence (O60427 whole entry): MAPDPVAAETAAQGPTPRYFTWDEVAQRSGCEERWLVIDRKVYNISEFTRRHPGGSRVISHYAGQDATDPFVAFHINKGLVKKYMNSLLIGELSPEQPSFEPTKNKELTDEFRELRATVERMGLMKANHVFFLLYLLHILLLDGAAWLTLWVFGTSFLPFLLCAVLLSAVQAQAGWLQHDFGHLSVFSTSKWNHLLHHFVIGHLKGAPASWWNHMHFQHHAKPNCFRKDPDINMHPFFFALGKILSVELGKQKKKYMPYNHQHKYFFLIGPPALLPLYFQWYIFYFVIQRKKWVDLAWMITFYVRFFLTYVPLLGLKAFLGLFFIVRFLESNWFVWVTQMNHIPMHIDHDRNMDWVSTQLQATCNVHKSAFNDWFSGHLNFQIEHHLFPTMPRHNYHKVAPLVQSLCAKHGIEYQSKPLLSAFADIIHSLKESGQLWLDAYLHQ

Regarding `COc1ccc2c(=O)n(-c3ccc(OCC(F)(F)F)cc3)c(SC)nc2n1` [Example 2, 7-methoxy-2-(methylsulfanyl)-3-[4-(2,2,2-trifluoroethoxy)phenyl]pyrido[2,3-d]pyrimidin-4(3H)-one], the inhibition at 10 µM in data set [1] was found to be 94%; in data set [3] it was 102%. Also, the inhibition at 1 µM in data set [2] came to 107%.
For `CCCSc1nc2nc(OC)ccc2c(=O)n1-c1ccc(OCC(F)(F)F)cc1` [Example 3, 7-methoxy-2-(propylsulfanyl)-3-[4-(2,2,2-trifluoroethoxy)phenyl]pyrido[2,3-d]pyrimidin-4(3H)-one], the inhibition at 10 µM in data set [1] turned out to be 97%; in data set [3], 102%.
As to `COc1ccc2c(=O)n(-c3ccc(OCC(F)(F)F)cc3)c(OCC(F)(F)F)nc2n1` [Example 5, 7-methoxy-2-(2,2,2-trifluoroethoxy)-3-[4-(2,2,2-trifluoroethoxy)phenyl]pyrido[2,3-d]pyrimidin-4(3H)-one], the results for the inhibition at 10 µM in data set [1] and in data set [3] were 93% and 101%, respectively. In data set [2], the inhibition at 1 µM was 95%.
On the same counts, the results for `CCSc1nc2[nH]c(=O)ccc2c(=O)n1-c1ccc(OCC(F)(F)F)cc1` [Example 6, 2-(ethylsulfanyl)-3-[4-(2,2,2-trifluoroethoxy)phenyl]pyrido[2,3-d]pyrimidine-4,7(3H,8H)-dione] are 97%, 99% and 101%.
`CCSc1nc2[nH]c(=O)ccc2c(=O)n1-c1ccc(OCC(F)(F)F)cc1` [Example 7, 2-(ethylsulfanyl)-3-[4-(2,2,2-trifluoroethoxy)phenyl]pyrido[2,3-d]pyrimidine-4,7(3H,8H)-dione sodium salt]: in data set [1] (3 nM tritiated ligand of Reference Example 1, sodium salt), the “Binding inhibitory activity against compound bind to delta-5-desaturase Binding inhibition rate (%) at 10 μM” value was found to be 96%. Besides, the “delta-5-desaturase inhibitory activity (at liver microsome) Inhibitory activity (%) at 10 μM” value in data set [3] (sodium salt, 10 µM) is reported as 98%.
With `CCSc1nc2c(ccc(=O)n2C)c(=O)n1-c1ccc(OCC(F)(F)F)cc1` [Example 8, 2-(ethylsulfanyl)-8-methyl-3-[4-(2,2,2-trifluoroethoxy)phenyl]pyrido[2,3-d]pyrimidine-4,7(3H,8H)-dione], the inhibition at 10 µM in data set [1] was found to be 96%; in data set [3], 99%. In addition, the inhibition at 1 µM in data set [2] was determined as 103%.
As to `CCOc1nc2[nH]c(=O)ccc2c(=O)n1-c1ccc(OCC(F)(F)F)cc1` [Example 9, 2-ethoxy-3-[4-(2,2,2-trifluoroethoxy)phenyl]pyrido[2,3-d]pyrimidine-4,7(3H,8H)-dione], the inhibition at 10 µM in data set [1] was found to be 96%; in data set [3] it was 99%. In addition, the inhibition at 1 µM in data set [2] was 97%.
On the same counts, the results for `O=c1ccc2c(=O)n(-c3ccc(OCC(F)(F)F)cc3)c(OCC(F)(F)F)nc2[nH]1` [Example 11, 2-(2,2,2-trifluoroethoxy)-3-[4-(2,2,2-trifluoroethoxy)phenyl]pyrido[2,3-d]pyrimidine-4,7(3H,8H)-dione] are 95%, 100% and 98%.
With `CS(=O)(=O)CCCOc1nc2[nH]c(=O)ccc2c(=O)n1-c1ccc(OCC(F)(F)F)cc1` [Example 13, 2-[3-(methylsulfonyl)propoxy]-3-[4-(2,2,2-trifluoroethoxy)phenyl]pyrido[2,3-d]pyrimidine-4,7(3H,8H)-dione], the inhibition at 10 µM in data set [1] worked out at 89%; in data set [3], 97%. In addition, in data set [2], the inhibition at 1 µM worked out at 88%.
With `COCC(F)(F)COc1nc2[nH]c(=O)ccc2c(=O)n1-c1ccc(OCC(F)(F)F)cc1` [Example 14, 2-(2,2-difluoro-3-methoxypropoxy)-3-[4-(2,2,2-trifluoroethoxy)phenyl]pyrido[2,3-d]pyrimidine-4,7(3H,8H)-dione], the inhibition at 1 µM in data set [2] is 103%. In addition, the inhibition at 10 µM in data set [3] worked out at 103%.
In the case of `O=c1ccc2c(=O)n(-c3ccc(OCC(F)(F)F)cc3)c(OCC(F)(F)CO)nc2[nH]1` [Example 17, 2-(2,2-difluoro-3-hydroxypropoxy)-3-[4-(2,2,2-trifluoroethoxy)phenyl]pyrido[2,3-d]pyrimidine-4,7(3H,8H)-dione], the inhibition at 10 µM is 99% in data set [1] and 105% in data set [3]. The inhibition at 1 µM in data set [2] amounted to 103%.
On the same counts, the results for `COc1nc2[nH]c(=O)ccc2c(=O)n1-c1ccc(OCC(F)(F)F)cc1` [Example 18, 2-methoxy-3-[4-(2,2,2-trifluoroethoxy)phenyl]pyrido[2,3-d]pyrimidine-4,7(3H,8H)-dione] are 84%, 92% and 95%.
For the molecule `CCNc1nc2[nH]c(=O)ccc2c(=O)n1-c1ccc(OCC(F)(F)F)cc1` [Example 19, 2-(ethylamino)-3-[4-(2,2,2-trifluoroethoxy)phenyl]pyrido[2,3-d]pyrimidine-4,7(3H,8H)-dione], the figures for the inhibition at 10 µM in data set [1] and in data set [3] were 85% and 90%, respectively.
As for `CC(C)Oc1nc2[nH]c(=O)ccc2c(=O)n1-c1ccc(OCC(F)(F)F)cc1` [Example 20, 2-(1-methylethoxy)-3-[4-(2,2,2-trifluoroethoxy)phenyl]pyrido[2,3-d]pyrimidine-4,7(3H,8H)-dione], the results for the inhibition at 10 µM in data set [1] and in data set [3] were 97% and 104%, respectively. Also, the inhibition at 1 µM in data set [2] amounted to 97%.
Turning to `CSc1nc2c(c(=O)n1-c1ccc(OCC(F)(F)F)cc1)CCC(=O)N2` [Example 21, 2-(methylsulfanyl)-3-[4-(2,2,2-trifluoroethoxy)phenyl]-5,6-dihydropyrido[2,3-d]pyrimidine-4,7(3H,8H)-dione], the inhibition at 10 µM in data set [1] was 93%; in data set [3], 97%.
With `CCSc1nc2c(c(=O)n1-c1ccc(OCC(F)(F)F)cc1)CCC(=O)N2` [Example 24, 2-(ethylsulfanyl)-3-[4-(2,2,2-trifluoroethoxy)phenyl]-5,6-dihydropyrido[2,3-d]pyrimidine-4,7(3H,8H)-dione], the values for the inhibition at 10 µM in data set [1] and in data set [3] were 95% and 101%, respectively. For the same molecule, the inhibition at 1 µM in data set [2] is 109%.
For `CCCc1nc2c(c(=O)n1-c1ccc(OCC(F)(F)F)cc1)CCC(=O)N2` [Example 40, 2-propyl-3-[4-(2,2,2-trifluoroethoxy)phenyl]-5,6-dihydropyrido[2,3-d]pyrimidine-4,7(3H,8H)-dione], the inhibition at 10 µM in data set [1] was found to be 89%. Moreover, the inhibition at 1 µM in data set [2] amounted to 92%.
